According to ChEMBL document CHEMBL1201862, “PubChem BioAssay data set” (2004):
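Grown in 96-well plates, cells were treated for 48 hours with each compound at five concentrations. Insufficient inhibition: endpoint recorded as highest concentration tested. GI50 is the concentration that inhibits growth by half.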 Active and inactive are the calls of the source. No stated cut-off is given here; in the data, active = GI50 up to about 1.1 µM and inactive = higher.

Columns and labels:
Experiment in all cases: NCI anticancer screen, dose series, 48 h
[1] = system: SK-MEL-2
[2] = system: EKVX
[3] = system: SR
[4] = system: OVCAR-8
[5] = system: SK-MEL-28
[6] = system: HCT-116
[7] = system: NCI-H460
[8] = system: SW-620
[9] = system: SNB-19
[10] = system: LOX IMVI
[11] = system: MDA-MB-435
[12] = system: SN12C
[13] = system: NCI-H522
[14] = system: T47D
[15] = system: MOLT-4
[16] = system: MDA-N
[17] = system: UO-31
[18] = system: HOP-92
[19] = system: COLO 205
[20] = system: SNB-75

SMILES	GI50 [1]	GI50 [2]	GI50 [3]	GI50 [4]	GI50 [5]	GI50 [6]	GI50 [7]	GI50 [8]	GI50 [9]	GI50 [10]	GI50 [11]	GI50 [12]	GI50 [13]	GI50 [14]	GI50 [15]	GI50 [16]	GI50 [17]	GI50 [18]	GI50 [19]	GI50 [20]
O=C(O)Cc1cc(O)c(CC(=O)O)cc1O	> 100 µM (inactive)	> 100 µM (inactive)	> 100 µM (inactive)	> 100 µM (inactive)	> 100 µM (inactive)	> 100 µM (inactive)	> 100 µM (inactive)	> 100 µM (inactive)	> 100 µM (inactive)	> 100 µM (inactive)	> 100 µM (inactive)	> 100 µM (inactive)	> 100 µM (inactive)	> 100 µM (inactive)	> 100 µM (inactive)	> 100 µM (inactive)	> 100 µM (inactive)	> 100 µM (inactive)	–	–
NS(=O)(=O)c1nnc(NS(=O)(=O)c2ccc(F)cc2)s1	> 100 µM (inactive)	> 100 µM (inactive)	> 100 µM (inactive)	> 100 µM (inactive)	> 100 µM (inactive)	> 100 µM (inactive)	> 100 µM (inactive)	> 100 µM (inactive)	> 100 µM (inactive)	> 100 µM (inactive)	> 100 µM (inactive)	> 100 µM (inactive)	–	> 100 µM (inactive)	> 100 µM (inactive)	> 100 µM (inactive)	> 100 µM (inactive)	> 100 µM (inactive)	> 100 µM (inactive)	–
COC1C(=O)CCC2(CO2)C1(O)C1(C)OC1CCC(C)C (stereo not given)	–	> 100 µM (inactive)	> 100 µM (inactive)	28 µM (inactive)	21.8 µM (inactive)	21.5 µM (inactive)	< 0.01 µM (active)	19.8 µM (inactive)	34.2 µM (inactive)	–	61.1 µM (inactive)	23.3 µM (inactive)	> 100 µM (inactive)	52.8 µM (inactive)	40.1 µM (inactive)	29.4 µM (inactive)	> 100 µM (inactive)	> 100 µM (inactive)	23.9 µM (inactive)	> 100 µM (inactive)
OCC(O)COCn1cc(Cn2ncc3c(O)ncnc32)nn1 (stereo not given)	> 100 µM (inactive)	> 100 µM (inactive)	> 100 µM (inactive)	> 100 µM (inactive)	> 100 µM (inactive)	> 100 µM (inactive)	–	> 100 µM (inactive)	> 100 µM (inactive)	> 100 µM (inactive)	> 100 µM (inactive)	> 100 µM (inactive)	28.5 µM (inactive)	> 100 µM (inactive)	> 100 µM (inactive)	> 100 µM (inactive)	> 100 µM (inactive)	> 100 µM (inactive)	> 100 µM (inactive)	–
O=C(O)CN1CCNCCNCC1	> 100 µM (inactive)	> 100 µM (inactive)	> 100 µM (inactive)	> 100 µM (inactive)	> 100 µM (inactive)	> 100 µM (inactive)	> 100 µM (inactive)	> 100 µM (inactive)	> 100 µM (inactive)	> 100 µM (inactive)	> 100 µM (inactive)	> 100 µM (inactive)	–	> 100 µM (inactive)	> 100 µM (inactive)	> 100 µM (inactive)	> 100 µM (inactive)	> 100 µM (inactive)	> 100 µM (inactive)	17.5 µM (inactive)
O=c1[nH]nc(-c2ccccc2)c2[nH]c3c(c12)CCCc1ccccc1-3	–	10.6 µM (inactive)	15.1 µM (inactive)	17.4 µM (inactive)	–	13.2 µM (inactive)	16 µM (inactive)	19.1 µM (inactive)	10.7 µM (inactive)	16.5 µM (inactive)	13 µM (inactive)	16.6 µM (inactive)	7.69 µM (inactive)	8.97 µM (inactive)	10.9 µM (inactive)	12.5 µM (inactive)	12.8 µM (inactive)	13.3 µM (inactive)	9.79 µM (inactive)	–
CC(=O)N1C(c2[nH]c3ccccc3c2-c2ccccc2)CCN1c1ccccc1 (stereo not given)	> 10 µM (inactive)	> 10 µM (inactive)	> 10 µM (inactive)	> 10 µM (inactive)	> 10 µM (inactive)	> 10 µM (inactive)	> 10 µM (inactive)	> 10 µM (inactive)	> 10 µM (inactive)	> 10 µM (inactive)	> 10 µM (inactive)	> 10 µM (inactive)	> 10 µM (inactive)	> 10 µM (inactive)	> 10 µM (inactive)	> 10 µM (inactive)	> 10 µM (inactive)	–	> 10 µM (inactive)	> 10 µM (inactive)
COc1c(O)cc2c(c1O)C1O[C@H](CO)C(O)[C@H](O)[C@H]1OC2=O (stereo not given in full)	> 100 µM (inactive)	–	> 100 µM (inactive)	> 100 µM (inactive)	> 100 µM (inactive)	> 100 µM (inactive)	> 100 µM (inactive)	> 100 µM (inactive)	> 100 µM (inactive)	> 100 µM (inactive)	> 100 µM (inactive)	> 100 µM (inactive)	> 100 µM (inactive)	> 100 µM (inactive)	> 100 µM (inactive)	> 100 µM (inactive)	–	> 100 µM (inactive)	> 100 µM (inactive)	> 100 µM (inactive)
